The record followed here is US11467168B2, “Methods of identifying a moldulator of otopetrin-mediated proton translocation activity” (UNIVERSITY OF SOUTHERN CALIFORNIA, priority 2017, dated 2022).

Values joined by “and” are separate entries in the source; they are usually repeats but may differ in a detail not shown here. Identical values can stand only once.

For the assay, the target named is T1, Otop1 (Mus musculus, UniProt Q80VM9, G396A).
T1 construct: expressed in transfected cells; host or cells: HEK-293 cells (CRL-1573, ATCC), transient co-transfection with GFP, cDNA in pcDNA3
T1 sequence (Q80VM9 1-600 G396A): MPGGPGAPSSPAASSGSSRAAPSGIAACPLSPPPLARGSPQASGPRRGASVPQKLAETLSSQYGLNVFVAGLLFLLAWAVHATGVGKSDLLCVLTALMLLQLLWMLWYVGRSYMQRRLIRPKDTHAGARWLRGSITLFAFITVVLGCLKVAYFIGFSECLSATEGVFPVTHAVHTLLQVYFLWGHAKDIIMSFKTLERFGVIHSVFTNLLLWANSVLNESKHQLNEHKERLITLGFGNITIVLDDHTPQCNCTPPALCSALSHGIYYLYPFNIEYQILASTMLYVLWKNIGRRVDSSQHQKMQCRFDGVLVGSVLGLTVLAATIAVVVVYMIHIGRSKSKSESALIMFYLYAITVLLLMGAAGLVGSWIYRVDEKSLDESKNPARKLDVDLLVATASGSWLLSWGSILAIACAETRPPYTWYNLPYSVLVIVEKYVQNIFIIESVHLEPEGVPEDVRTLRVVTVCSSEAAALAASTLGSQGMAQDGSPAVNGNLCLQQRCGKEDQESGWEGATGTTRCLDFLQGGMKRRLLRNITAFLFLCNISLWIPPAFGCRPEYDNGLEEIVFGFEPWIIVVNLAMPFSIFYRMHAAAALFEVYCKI
Briefly: Zn2+ inhibition of Otop1 currents, whole-cell patch clamp in transfected HEK-293 cells. Format: cell-based. The settings on record: Otop1-transfected HEK-293 cells, currents evoked by pH 5.5, Hill equation fit. The text has this: The transition metal Zn^2+ is a potent inhibitor of Hv1, binding to two external histidine residues that regulate gating^7,31,32. […] To gain insights into structural elements involved in ion permeation by Otop1, we measured its sensitivity to inhibition by Zn^2+.
Otop and GFP (5:1) were co-transfected into HEK-293 cells (CRL-1573, ATCC) using TransIT-LT1 Transfection Reagent (Mirus Bio Corporation, Madison, Wis.). Patch clamp recording and imaging experiments on GFP-positive cells were performed at room temperature ˜24-48 h after transfection.
Whole-cell patch clamp recording was performed as previously described^49. In brief, recordings were made with an Axopatch 200A or Axopatch 200B amplifier, digitized with a Digidata 1322a 16-bit data acquisition system, acquired with pClamp 8.2, and analyzed with Clampfit 8.2 (Molecular Devices, Palo Alto, Calif.). Records were sampled at 5 kHz and filtered at 1 kHz. Patch pipettes with resistance of 2-4 MΩ were fabricated from borosilicate glass, and only recordings in which a gigaohm seal was achieved were used in the analysis. For most experiments, after the whole cell configuration was achieved, the membrane potential was held at −80 mV, or ramped from −80 mV to +80 mV (1V/s) once per second. […]
(In general: In patch-clamp work, channel activity is measured electrically.)

Take `[Cl-].[Cl-].[Zn+2]` [Zn^2+, ZnCl2]: the Hill coefficient is 0.89 and 0.89±0.06; the half-maximal inhibitory concentration (IC50) came to 190 µM.

In general, Hill coefficient refers to the slope factor of the fitted curve. One may read the IC50 as the concentration at which inhibition is half-maximal.
